Tests used:
Assay type in all cases: functional
Streptococcus pyogenes [1] = test: Antibacterial activity against erythromycin-resistant Streptococcus pyogenes 2 clinical isolate assessed as bacterial growth inhibition incubated for 20 hrs by CLSI based broth microdilution method
[2] = tested on: Staphylococcus epidermidis; test: Antibacterial activity against penicillin-resistant Staphylococcus epidermidis clinical isolate assessed as bacterial growth inhibition incubated for 20 hrs by CLSI based broth microdilution method
Staphylococcus aureus [3] = test: Antibacterial activity against Staphylococcus aureus clinical isolate assessed as bacterial growth inhibition incubated for 20 hrs by CLSI based broth microdilution method
Staphylococcus aureus [4] = test: Antibacterial activity against penicillin-resistant Staphylococcus aureus ATCC31007 assessed as bacterial growth inhibition incubated for 20 hrs by CLSI based broth microdilution method
Staphylococcus aureus [5] = test: Antibacterial activity against methicillin-resistant Staphylococcus aureus ATCC43300 assessed as bacterial growth inhibition incubated for 20 hrs by CLSI based broth microdilution method
Klebsiella pneumoniae = test: Antibacterial activity against Klebsiella pneumoniae ATCC BAA-1902 assessed as bacterial growth inhibition incubated for 20 hrs by CLSI based broth microdilution method
Acinetobacter baumannii = test: Antibacterial activity against Acinetobacter baumannii ATCC19606 assessed as bacterial growth inhibition incubated for 20 hrs by CLSI based broth microdilution method
Escherichia coli [6] = test: Antibacterial activity against wild-type Escherichia coli BW25113 assessed as bacterial growth inhibition incubated for 20 hrs by CLSI based broth microdilution method
Escherichia coli [7] = test: Antibacterial activity against penicillin-susceptible Escherichia coli ATCC25922 assessed as bacterial growth inhibition incubated for 20 hrs by CLSI based broth microdilution method
Enterococcus faecium [8] = test: Antibacterial activity against vancomycin-susceptible Enterococcus faecium ATCC19434 assessed as bacterial growth inhibition incubated for 20 hrs by CLSI based broth microdilution method
Enterococcus faecalis [9] = test: Antibacterial activity against vancomycin-susceptible Enterococcus faecalis ATCC29212 assessed as bacterial growth inhibition incubated for 20 hrs by CLSI based broth microdilution method
Streptococcus pyogenes [10] = test: Antibacterial activity against erythromycin-susceptible Streptococcus pyogenes 1 assessed as bacterial growth inhibition incubated for 20 hrs by CLSI based broth microdilution method
Staphylococcus aureus [11] = test: Antibacterial activity against erythromycin-susceptible Staphylococcus aureus ATCC25923 assessed as bacterial growth inhibition incubated for 20 hrs by CLSI based broth microdilution method
Bacillus pumilus = test: Antibacterial activity against penicillin-susceptible Bacillus pumilus CMCC63202 assessed as bacterial growth inhibition incubated for 20 hrs by CLSI based broth microdilution method
Bacillus subtilis = test: Antibacterial activity against penicillin-susceptible Bacillus subtilis ATCC9372 assessed as bacterial growth inhibition incubated for 20 hrs by CLSI based broth microdilution method
Enterococcus faecalis [12] = test: Antibacterial activity against vancomycin-resistant Enterococcus faecalis ATCC51299 assessed as bacterial growth inhibition incubated for 20 hrs by CLSI based broth microdilution method
Enterococcus faecium [13] = test: Antibacterial activity against vancomycin-resistant Enterococcus faecium ATCC51559 assessed as bacterial growth inhibition incubated for 20 hrs by CLSI based broth microdilution method

SMILES	MIC (Streptococcus pyogenes [1])	MIC [2]	MIC (Staphylococcus aureus [3])	MIC (Staphylococcus aureus [4])	MIC (Staphylococcus aureus [5])	MIC (Klebsiella pneumoniae)	MIC (Acinetobacter baumannii)	MIC (Escherichia coli [6])	MIC (Escherichia coli [7])	MIC (Enterococcus faecium [8])	MIC (Enterococcus faecalis [9])	MIC (Streptococcus pyogenes [10])	MIC (Staphylococcus aureus [11])	MIC (Bacillus pumilus)	MIC (Bacillus subtilis)	MIC (Enterococcus faecalis [12])	MIC (Enterococcus faecium [13])
C[n+]1cc(-c2ccccc2)c(/C=C/c2ccc(N3CCCCC3)cc2)cc1-c1ccc2ccccc2c1.[I-]	2 µg/mL	2 µg/mL	0.5 µg/mL	2 µg/mL	1 µg/mL	16 µg/mL	2 µg/mL	4 µg/mL	64 µg/mL	1 µg/mL	1 µg/mL	2 µg/mL	0.5 µg/mL	0.5 µg/mL	1 µg/mL	2 µg/mL	2 µg/mL
Cc1ccccc1-c1c[n+](C)c(-c2ccc(C(C)(C)C)cc2)cc1/C=C/c1ccc(F)cc1.[I-]	2 µg/mL	1 µg/mL	0.25 µg/mL	1 µg/mL	0.5 µg/mL	8 µg/mL	2 µg/mL	4 µg/mL	8 µg/mL	1 µg/mL	0.5 µg/mL	2 µg/mL	1 µg/mL	0.5 µg/mL	0.5 µg/mL	2 µg/mL	1 µg/mL
C[n+]1cc(-c2ccccc2)c(/C=C/c2ccc(F)cc2)cc1-c1ccccc1.[I-]	2 µg/mL	2 µg/mL	1 µg/mL	4 µg/mL	1 µg/mL	32 µg/mL	8 µg/mL	8 µg/mL	8 µg/mL	4 µg/mL	4 µg/mL	2 µg/mL	0.125 µg/mL	2 µg/mL	0.5 µg/mL	2 µg/mL	8 µg/mL
C[n+]1cc(-c2ccccc2)c(/C=C/c2ccc(O)cc2)cc1-c1ccccc1.[I-]	16 µg/mL	16 µg/mL	16 µg/mL	64 µg/mL	32 µg/mL	64 µg/mL	32 µg/mL	> 64 µg/mL	> 64 µg/mL	64 µg/mL	64 µg/mL	4 µg/mL	2 µg/mL	32 µg/mL	8 µg/mL	64 µg/mL	64 µg/mL
CCOc1ccc(/C=C/c2cc(-c3ccccc3)c[n+](C)c2-c2ccccc2)cc1.[I-]	8 µg/mL	16 µg/mL	2 µg/mL	16 µg/mL	8 µg/mL	> 64 µg/mL	16 µg/mL	> 64 µg/mL	> 64 µg/mL	32 µg/mL	16 µg/mL	4 µg/mL	2 µg/mL	16 µg/mL	4 µg/mL	32 µg/mL	16 µg/mL
CCCCOc1ccc(/C=C/c2cc(-c3ccccc3)c[n+](C)c2-c2ccccc2)cc1.[I-]	2 µg/mL	2 µg/mL	1 µg/mL	16 µg/mL	1 µg/mL	16 µg/mL	4 µg/mL	8 µg/mL	8 µg/mL	2 µg/mL	4 µg/mL	2 µg/mL	0.5 µg/mL	1 µg/mL	1 µg/mL	4 µg/mL	4 µg/mL
CC(C)c1ccc(/C=C/c2cc(-c3ccc4ccccc4c3)[n+](C)cc2-c2ccccc2)cc1.[I-]	4 µg/mL	2 µg/mL	0.5 µg/mL	2 µg/mL	0.5 µg/mL	16 µg/mL	2 µg/mL	8 µg/mL	64 µg/mL	2 µg/mL	2 µg/mL	0.5 µg/mL	0.5 µg/mL	0.5 µg/mL	0.5 µg/mL	4 µg/mL	2 µg/mL

Reference: ChEMBL document CHEMBL5537115, “New broad-spectrum and potent antibacterial agents with dual-targeting mechanism: Promoting FtsZ polymerization and disrupting bacterial membranes” (Eur J Med Chem, 2024)
